Results on 67 compounds are retold here after the pKa sets of Baltruschat and Czodrowski (2020).

The pKa is the pH at which an ionisable group is half protonated.

Compound `[O-]c1[nH+]c(O)nc2nc[nH]c12` yielded a pKa (acidic group) of 7.56.

`CCCNC(=O)[C@H](Cc1c[nH]cn1)NC(=O)c1cccc(CNCC[NH3+])n1`: where the note is “basic group”, the pKa came to 6.5.

The compound `C[C@H]1CCCC[C@@H]1N` came in with a pKa (basic group) of 10.6.

Take `Cc1ccc2[nH]nnc2c1`: the pKa (acidic group) was determined as 8.9.

As for `[O-]c1nc2ccccc2[nH]1`, the pKa (basic group) stood at 11.9.

`c1ccc(CC2CCCN2)cc1` (configuration not stated): under “basic group”, the pKa is 10.3.

In turn, `Fc1ccc(NC(=S)c2ccccc2)cc1` displayed a pKa (acidic group) of 10.8.

For `Nc1ccc2c(c1Br)CCCC2`, for the setting “basic group”, the pKa worked out at 3.05.

As for `Oc1ccc2ncsc2c1`, the pKa (acidic group) was 9.21.

For the setting “basic group”, `CC1(C)[C@@H](N)[C@@H]1[NH3+]` returned a pKa of 5.97.

`O=C(O)c1ccc(-c2nnn[nH]2)cc1`: for the setting “acidic group”, the pKa is 3.63.

`C[N+](C)(C)CCN` returned a pKa (basic group) of 7.34.

For `Sc1cccc(Cl)c1`, the pKa (acidic group) was 5.76.

For `Cc1cnc2c(C)ccc([N+](=O)[O-])c2c1NCCC[NH+](C)C`, the pKa (basic group) worked out at 6.1.

`O=[PH]([O-])C(NCc1ccccn1)c1ccccc1O` (configuration not stated): the pKa was 12 (acidic group) and 8.08 (basic group).

Compound `Nc1ccc(Cl)cc1[N+](=O)[O-]` showed a pKa (basic group) of -0.88.

Regarding `Nc1cccc2c1ccc1ncccc12`, the pKa (basic group) came out at 5.2.

`COCc1ccccc1C(=O)O` returned a pKa (acidic group) of 3.85.

In turn, `O=C1/C(=N\O)C=C(S(=O)(=O)[O-])c2cn[nH]c21` yielded a pKa (acidic group) of 6.35.

The compound `O=C(O)CC[C@@H]1NC(=O)CNC1=O` displayed a pKa (acidic group) of 4.36.

With `Nc1cccnn1`, where the note is “basic group”, the pKa turned out to be 5.19.

In the case of `Nc1ccnc(N)n1`, the pKa (basic group) was 7.26.

Turning to `CSc1ncnc2nc[nH]c12`, under “acidic group”, the pKa came to 8.74.

Turning to `Cc1cccc(C)c1O`, the pKa (acidic group) came to 10.6.

`O=C(O)Cn1ncnn1` had a pKa (acidic group) of 2.12.

With `NNC=O`, the pKa (basic group) was found to be 2.81.

Where the note is “acidic group”, `O=C1CCC(=O)N1` showed a pKa of 9.59.

Consider `NS(=O)(=O)c1cccc([N+](=O)[O-])c1`, for which, for the setting “acidic group”, the pKa came to 9.19.

As for `CC[NH2+]CC[SeH]`, the pKa (acidic group) amounted to 5.04.

On to `c1ccc2c(c1)ccc1nc[nH]c12`, for which the pKa runs as follows: (acidic group) 12.5; (basic group) 5.28.

`CC(C)N1C2CCCC21` (configuration not stated) returned a pKa (basic group) of 8.31.

Take `O=C1C[C@H](C(=O)O)[C@@H](C(=O)O)O1`: the pKa (acidic group) was found to be 2.26.

As for `C[n+]1ccc(O)nc1`, under “acidic group”, the pKa amounted to 1.91.

`N#CC(C#N)=NNc1ccccc1Cl` displayed a pKa (acidic group) of 5.84 and a pKa (basic group) of -0.77.

In turn, `Nc1ccc(Cc2ccc(N)cc2)cc1` returned a pKa (basic group) of 5.1.

For `NNC(=O)c1ccccc1N`, the pKa runs as follows: (acidic group) 12.8; (basic group) 3.47.

The compound `Cc1ccc(Nc2ccccc2)cc1` returned a pKa (basic group) of 1.16.

`O=C([O-])c1ccc2sc(Cn3ccnc3)cc2c1` returned a pKa (basic group) of 6.34.

For the setting “acidic group”, `C/C(=C\C=C\C(C)C(=O)O)[C@H]1C[NH2+][C@H](C(=O)[O-])[C@H]1CC(=O)O` (some centres not stated) gave a pKa of 3.72.

For `[NH3+]c1ccccc1-c1nc2ccccc2s1`, where the note is “basic group”, the pKa is -1.8.

In turn, `CC1=[NH+]c2ccccc2/C1=C/C=C1\Cc2ccccc2N1C` displayed a pKa (basic group) of 1.22.

In turn, `C=C(C)[C@H]1CN[C@H](C(=O)[O-])[C@H]1CC(N)=O` showed a pKa (basic group) of 9.47.

On to `CCOC(=O)c1n[nH]c2c(c1=O)c(=O)n(C)c(=O)n2C`, for which the pKa (acidic group) was found to be 7.32.

`N#CC(C#N)c1ccc([N+](=O)[O-])cc1`: the pKa (acidic group) was determined as 2.35.

Consider `[NH3+]c1cccc(-c2nc3ccccc3s2)c1`, for which the pKa (basic group) was 0.07.

Take `Cc1ccc2nc3c(c(N4CCOCC4)c2c1)CCC3`: for the setting “basic group”, the pKa was 7.18.

Take `COc1cccc(/C=C/C(=O)O)c1`: the pKa (acidic group) was 4.38.

`CC(O)C[NH+](CCCN1CCOCC1)CC(C)O` (configuration not stated) had a pKa (basic group) of 5.5.

`O=c1[nH]ccc2nnnn12` displayed a pKa (acidic group) of 6.95.

The compound `O=C1[N-]C(=S)NC(=O)C1C1C=CCCC1` (configuration not stated) showed a pKa (acidic group) of 11.3.

Where the note is “basic group”, `Nc1nc(N(CCO)CCO)nc(N(CCO)CCO)n1` displayed a pKa of 5.15.

`C[n+]1c([S-])nc([O-])c2ccccc21` returned a pKa (basic group) of 9.23.

Take `CCN1CCC[C@@H]1CNC(=O)c1c([O-])c(Cl)cc(Cl)c1OC`: the pKa (basic group) amounted to 9.12.

On to `NCc1nnn[n-]1`, for which the pKa (basic group) was 8.54.

In turn, `C1C[NH2+]CCSCCN1` had a pKa (basic group) of 4.16.

Regarding `CC(=O)/C(=N/O)c1ccccc1`, for the setting “acidic group”, the pKa is 8.85.

Where the note is “acidic group”, `O=C1NC(=O)/C(=C/c2ccccc2)N1` returned a pKa of 8.6.

For the compound `N=C(N)Nc1nccc(-c2csc(N)n2)n1`, the pKa (basic group) turned out to be 9.2.

Take `COCc1ccccc1CN(C)C`: the pKa (basic group) was 9.19.

Turning to `C[C@@H]1CCCC[C@@H]1N`, under “basic group”, the pKa worked out at 10.6.

`O=C([O-])[C@@H]1CC[C@@H](C(=O)O)[Se][Se]1` had a pKa (acidic group) of 3.67.

With `[O-]c1nccc2cccnc12`, the pKa (basic group) stood at 12.

Turning to `CN(C)c1ccc(N=O)cc1`, under “basic group”, the pKa was 4.54.

`O/N=C/c1ccnc2ccccc12`: the pKa was found to be 10.4 (acidic group) and 4.55 (basic group).

For `Cc1ccc(C(=O)C(=O)O)cc1C`, the pKa (acidic group) turned out to be 1.36.

With `Cc1cc(-c2ccccc2)nnc1NCCN1CCOCC1`, the pKa (basic group) was 7.05.

Compound `O=C(O)C12CCC(C1)C2` came in with a pKa (acidic group) of 3.96.
